Values quoted from earlier work as cited in patent US20220142892A1, “PROCESS FOR THE PREPARATION AND USE OF HAIR TREATMENT COMPOSITIONS CONTAINING ORGANIC C1-C6 ALKOXY SILANES” (Henkel AG & Co. KGaA, priority 2019, published 2022).

Conditions: 25° C.

Row | solubility in water (in words) | Compound | solubility in water
1 |  | O=S(=O)([O-])c1ccc(N=Nc2c(O)ccc3ccccc23)cc1.[Na+] [Acid Orange 7, sodium salt of 4-[(2-hydroxy-1-naphthyl)azo]benzene sulphonate] | more than 7 g/L
2 |  | Nc1cc(S(=O)(=O)[O-])cc2cc(S(=O)(=O)[O-])c(N=Nc3ccccc3)c(O)c12.[Na+].[Na+] [Acid Red 33, diantrium salt of 5-amino-4-hydroxy-3-(phenylazo)-naphthalene-2,7-disulphonate] | 2500 µg/mL
3 |  | O=C([O-])c1c(Cl)c(Cl)c(Cl)c(Cl)c1-c1c2c(Br)cc(=O)c(Br)c-2oc2c(Br)c(O)cc(Br)c12.O=C([O-])c1c(Cl)c(Cl)c(Cl)c(Cl)c1-c1c2c(Br)cc(=O)c(Br)c-2oc2c(Br)c(O)cc(Br)c12.[Na+].[Na+] [Acid Red 92, disodium salt of 3,4,5,6-tetrachloro-2-(1,4,5,8-tetrabromo-6-hydroxy-3-oxoxanthen-9-yl)benzoic acid] | greater than 10 g/L
4 | highly soluble | O=C([O-])C1=NN(c2ccc(S(=O)(=O)[O-])cc2)C(=O)C1N=Nc1ccc(S(=O)(=O)[O-])cc1.[Na+].[Na+].[Na+] (stereo not shown) [Acid Yellow 23, trisodium salt of 4,5-dihydro-5-oxo-1-(4-sulfophenyl)-4-((4-sulfophenyl)azo)-1H-pyrazole-3-carboxylic acid] | 
